Source: patent publication US20010047021A1, “Cancer treatment” (The Procter & Gamble Company, priority 2000, published 2001)

Tested on: SK-OV-3 tumor lines
Experiment: SK-OV-3 tumor in nude mouse, average tumor weight
Type: in vivo
Experimental: 2-Methoxycarbonylamino-4,5,6,7-tetrafluorobenzimidazole (tetrafluoro) was used to treat SK-OV-3 tumor lines in nude mouse. The average tumor weight is reported in mg. The control was the vehicle given twice a week and also 5 times a week. The 2-methoxycarbonyl-amino-4,5,6,7- tetrafluorobenzimidazole was also given on this same schedule. Both compounds were administered by oral gavage.

SMILES: COC(=O)Nc1nc2c(F)c(F)c(F)c(F)c2[nH]1 [Tetrafluoro, 2-Methoxycarbonylamino-4,5,6,7-tetrafluorobenzimidazole]
- Average Tumor Weight (2000 mg/kg 2x wkly, oral gavage, day 1): 58.5 mg
- Average Tumor Weight (2000 mg/kg 2x wkly, oral gavage, day 5): 108.1 mg
- Average Tumor Weight (2000 mg/kg 2x wkly, oral gavage, day 9): 246.8 mg
- Average Tumor Weight (2000 mg/kg 2x wkly, oral gavage, day 12): 476.2 mg
- Average Tumor Weight (2000 mg/kg 2x wkly, oral gavage, day 15): 770 mg
- Average Tumor Weight (2000 mg/kg qdx5, oral gavage, day 1): 59.1 mg
- Average Tumor Weight (2000 mg/kg qdx5, oral gavage, day 5): 106.2 mg
- Average Tumor Weight (2000 mg/kg qdx5, oral gavage, day 9): 255.8 mg
- Average Tumor Weight (2000 mg/kg qdx5, oral gavage, day 12): 381.7 mg
- Average Tumor Weight (2000 mg/kg qdx5, oral gavage, day 15): 781.2 mg
- Average Tumor Weight (4000 mg/kg 2x wkly, oral gavage, day 1): 59.5 mg
- Average Tumor Weight (4000 mg/kg 2x wkly, oral gavage, day 5): 98.6 mg
- Average Tumor Weight (4000 mg/kg 2x wkly, oral gavage, day 9): 204 mg
- Average Tumor Weight (4000 mg/kg 2x wkly, oral gavage, day 12): 336.6 mg
- Average Tumor Weight (4000 mg/kg 2x wkly, oral gavage, day 15): 672.9 mg
- Average Tumor Weight (4000 mg/kg qdx5, oral gavage, day 1): 59.5 mg
- Average Tumor Weight (4000 mg/kg qdx5, oral gavage, day 5): 66.1 mg
- Average Tumor Weight (4000 mg/kg qdx5, oral gavage, day 9): 150.8 mg
- Average Tumor Weight (4000 mg/kg qdx5, oral gavage, day 12): 160.7 mg
- Average Tumor Weight (4000 mg/kg qdx5, oral gavage, day 15): 315.8 mg
- effect on the growth of the tumor (SK-OV-3 tumor, nude mouse, oral gavage): dose responsive effect
